Data on 9 compounds can be found in US20020058266A1, “EF-Tu protein encoded on the plastid DNA of the malaria parasite and protein synthesis inhibitors effective as anti-malarial compounds” (priority 1997, published 2002).

*1 amine or outer side, *2 acyl side, *3 side chain or, on linkers, in order; H or OH if unused. Where a SMILES comes first, the peptide text is derived from it. Bridges are numbered along the chain shown (N, C = ends). [ ]: non-standard residue; d: D form. The star is where a group is joined. X1 = NC1=N[C@@H]([C@H](N[*:1])C(=O)[*:2])C[C@H](O)N1; ΔAla(Z-3-ureido) = NC(=O)N/C=C(\N)C(=O)O; β3hOrn = NCCC[C@H](N)CC(=O)*; Dap = NC[C@H](N)C(=O)O

Data set [1] relates to erythrocytic stages of P.falciparum. The data set can be described thus: Incorporation of radiotracers (3H-hypoxanthine, 14C-isoleucine) by P.falciparum growing in blood cultures. It counts as cell-based, Plasmodium falciparum. The settings on record: for concentration at which maximum inhibition of radiotracer incorporation was achieved: cultures over a 36 hr period. As to the method:
Antibiotics—Samples of Mocimycin (kirromycin), Aurodox (N-methylated kirromycin), and Efrotomycin (a glycoside of kirromycin) were used. Aurodox was dissolved in RPMI-Albumax medium (Grande et al 1977), kirromycin was dissolved in RPMI made alkaline by addition of 1M NaOH, and efrotomycin was dissolved in ethanol before dilution in culture medium. Enacyloxin IIA was dissolved in 1% NaHCO3 prior to dilution in RPMI-Albumax medium. The antibiotic GE2270A was dissolved in 100% DMSO before dilution in culture medium. Fusidic acid (Sigma) was dissolved directly in culture medium, and thiostrepton (Sigma) in 100% DMSO before dilution in culture medium. A hemisuccinate form of thiostrepton was prepared as a potassium salt, according to Bodanszky et al 1965. Incorporation of radiotracers by P.falciparum growing in blood cultures in the presence and absence of drugs was carried out as described (Strath et al 1993).
(§1) Kirromycin: Kirromycin-resistant forms of bacterial EF-Tu are modified at one of seven amino acids along the opposing interfaces of domains I and III (Mesters et al 1994 and Abdulkarim et al 1994) and Pf EF-Tupl has a substitution at one of these sites (A375S-E.coli numbers) that could potentially confer resistance to kirromycin. To test this possibility, kirromycin (Mocimycin), its methylated derivative Aurodox or its disaccharide derivative Efrotomycin were incubated with erythrocytic stages of P.falciparum grown in cultures over a 36 hr period. The incorporation of both ^3H-hypoxanthine and ^14C-isoleucine was inhibited in a dose-dependent fashion, maximum inhibition being achieved at 100 μM kirromycin (FIG. 5). […] Once maximal depression of incorporation had been reached at any particular dose of drug, residual incorporation continued at a uniform rate thereafter. Vital staining with rhodamine 123, a fluorescent dye that concentrates within the mitochondrion (Divo et al. 1985) confirmed the parasiticidal effect, loss of specific mt staining being evident within 2-3 hours (data not shown). […] Blood cultures of P.falciparum were about 10 times more sensitive to the antibiotic than a gram-positive bacterium (Corynebacterium spp) used in parallel bioassays.

Data set [2] concerns the target T1, heterologously expressed Pf EF-Tupl (Plasmodium falciparum, UniProt Q25820).
T1 construct: one clone in JM109 contained the complete insert; GST (cleaved yes); made in house; host or cells: E. coli JM109 (pGEX)
The data set can be described thus: Band shift in native polyacrylamide gel with expressed Pf EF-Tupl. It is filed as binding. The settings on record: 100 μM antibiotic, 100 μM GDP, native 12% polyacrylamide gel. As to the method:
FIG. 13 contains immunoblots showing that binding of antibiotics modifies migration of EF-Tu.GDP in native polyacrylamide gels. Two segments of the same gel show A) heterologously expressed Pf EF-Tupl protein detected with a malaria peptide-specific antibody and B) E.coli EF-Tu detected with a specific antibody (Breidenbach et al 1990). Lanes without antibiotics (1 and 5), lanes with 100 μM antibiotic: GE2270A (2 and 6), enacyloxin lla (3 and 7), kirromycin (4 and 8). Arrows indicate uncomplexed EF-Tu.
Drug binding—Thiostrepton binding to short rRNA transcripts generated in vitro was assayed according to Ryan et al 1991, as modified by Clough et al 1997. […] Before […], samples were incubated on ice for 15 mins in 50 mM imidazole acetate (pH 7.6), 10 mM NH4Cl, 10 mM MgCl2, 1 mM […] and 100 μM GDP, in a final volume of 20 μl.
The material tufA gene in pGEX was expressed as an insoluble fusion protein in E.coli JM 109. The protein was detected either with antibodies to the GST tag or with antibodies to a specific peptide sequence in domain I ([…]) not found on E.coli EF-Tu. Washed inclusion bodies were dissolved and refolded by dilution (Lin et al 1991).

The subject of the next data set is P.chabaudi. The data set can be described thus: Mice infected with P.chabaudi. It counts as in vivo. The settings on record: for development of the infection in mice: intraperitoneally 0.1 ml of 100 mM. As to the method: The solid line is for aurodox, the dotted line is for mocimycin and the dashed line is for no drug controls. The arrows on the x-axis indicate days on which three 0.1 ml 100 mM ip injections were given.
On the basis of these findings, preliminary studies were carried out on mice infected with P.chabaudi. In the first experiment, mice were infected and inoculated on the same day intraperitoneally with 0.1 ml of 100 mM Aurodox, a dose calculated to mimic the maximal inhibitory effect observed in vitro. […] In a single experiment.

The test system of data set [3] is Pf 28S cytosolic rRNA (cytosolic ribosomes). The data set can be described thus: Puromycin shift of polysomes on sucrose gradients, cytosolic rRNA probe. The settings on record: 2 mM puromycin; anisomycin 3 mM pre-treatment. It counts as biochemical, Plasmodium falciparum. As to the method:
(§2) Polysome preparation and puromycin shift—P.falciparum was grown in blood cultures (Trager et al 1976) and ribosomes prepared as described (Sherman et al 1975). Parasitized erythrocytes were lysed for 1 hr on ice in a buffer containing 0.14% Nonidet P-40 (Trade Name), 25 mM KCl, 10 mM MgCl2, 380 mM-sucrose, 6.5 mM β-mercaptoethanol and 50 mM Tris HCl, pH 7.6. The lysate was centrifuged×3 at 10,000 g for 10 min at 4° C. to remove genomic DNA and other cell debris before further centrifugation at 105,000 g for 1 hr in an SW40 rotor (Trade Name, Beckman) at 4° C. The resulting pellet was resuspended in 25 mM KCl, 5 mM MgCl2 and 50 mM Tris HCl (pH 7.6) and homogenized by hand (×50 strokes) with a glass dounce homogenizer (Wheatstone, USA). The suspension was centrifuged at 10,000 g for 10 min at 4° C. and the crude pellet discarded before further centrifugation for 2 hr at 105,000 g in an SW55 rotor (Beckman) at 4° C. The pellet was resuspended in 10 mM Tris HCl, 10 mM MgCl2, 100 mM KCl and homogenized again to give a suspension of ribosomes. […]
(§3) In an experiment with RNase (Cox 1969), total polysomes were incubated with a range of concentrations of RNase (1-13 ng ml^−1 ribosomes, Boehringer) prior to centrifugation for 30 min at 26° C. […] Hybridization signals were quantitated using a Molecular Dynamics phosphor imager. […]

The conditions of data set [4]: in vivo; cited from earlier work.
Data set [5] has as its system Pf 16S rRNApl (plastid ribosomes). The data set can be described thus: Puromycin shift of polysomes on sucrose gradients, plastid rRNA probe. The following applies: 2 mM puromycin; anisomycin 3 mM pre-treatment. It is filed as biochemical, Plasmodium falciparum. As to the method:
as §2, §3

Data set [6] concerns P.falciparum. The data set can be described thus: Vital staining with rhodamine 123 (mitochondrial staining of parasites). The following applies: data not shown. It is filed as cell-based, Plasmodium falciparum. Here is the method: as §1
The subject of data set [7] is P.falciparum. The data set can be described thus: Treatment of parasites, removal of antibiotic by washing and 2 weeks follow-up in vitro. The settings on record: 1 mM for 1.5 cell cycles, washing, follow-up for 2 weeks in vitro. It is filed as cell-based, Plasmodium falciparum.
In the next data set the test system is Corynebacterium spp. The data set can be described thus: Parallel bioassay with a gram-positive bacterium. It is filed as cell-based. The settings on record: parallel bioassays. As to the method:
as §1

The subject of the next data set is eukaryotic cells. The following applies: at 100 μM; cited from earlier work.
[8] abbreviates: 3H-hypoxanthine and 14C-isoleucine.

T1 sequence (Q25820 whole entry): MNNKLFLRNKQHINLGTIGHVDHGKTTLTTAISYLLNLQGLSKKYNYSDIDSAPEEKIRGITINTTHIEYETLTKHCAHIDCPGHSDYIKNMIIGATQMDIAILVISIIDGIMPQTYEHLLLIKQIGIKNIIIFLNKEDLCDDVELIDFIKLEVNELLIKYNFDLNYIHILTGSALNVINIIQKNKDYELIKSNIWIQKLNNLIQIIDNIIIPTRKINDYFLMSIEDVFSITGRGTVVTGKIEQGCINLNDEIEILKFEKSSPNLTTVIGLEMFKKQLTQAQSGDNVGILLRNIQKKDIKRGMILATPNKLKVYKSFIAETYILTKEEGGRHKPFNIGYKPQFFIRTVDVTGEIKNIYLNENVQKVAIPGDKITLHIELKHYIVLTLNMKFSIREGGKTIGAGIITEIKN

Regarding `CNC(=O)C[C@@H]1NC(=O)c2csc(n2)-c2ccc(-c3nc(C4=N[C@H](C(=O)N5CCC[C@H]5C(N)=O)CO4)cs3)nc2-c2csc(n2)-c2csc(n2)[C@H]([C@@H](O)c2ccccc2)NC(=O)CNC(=O)c2nc(sc2COC)[C@H](C(C)C)NC(=O)c2nc1sc2C` [GE2270], the “inhibition of radiotracer incorporation in blood cultures, compared with other antibiotics” value in data set [1] (3H-hypoxanthine and 14C-isoleucine, blood cultures) is recorded as “more inhibitory in blood cultures than either kirromycin or thiostrepton”. In data set [2], the “mobility (Mr) of the GDP form of the EF-Tu complex” value (shortened to “mobility (Mr)”) was “decreased”.

On to `CC(=O)O[C@H]1C[C@@]2(C)[C@@H](C[C@@H](O)[C@H]3[C@@]4(C)CC[C@@H](O)[C@@H](C)[C@@H]4CC[C@@]32C)/C1=C(\CCC=C(C)C)C(=O)O` [Fusidic acid], for which, in [1] (setting [8]), the “concentration at which maximum inhibition of radiotracer incorporation was achieved” value was 200 µM. Moreover, the “effect on parasitaemias in mice” value in the data set with P.chabaudi (even at toxic dose levels, preliminary experiments) was “little effect on parasitaemias”.

Regarding `COc1ccc(C[C@H]2NC[C@H](O)[C@H]2OC(C)=O)cc1` [anisomycin], in data set [3], the “puromycin-shift of the hybridization signal, cytosolic rRNA” value is recorded as “blocked the puromycin-induced shift”.

As for `C/C=C/C=C/[C@@H]1O[C@](O)([C@H](CC)C(=O)NC/C=C/C=C(\C)[C@@H](OC)[C@@H](C)[C@@H]2O[C@H](/C=C/C=C/C=C(\C)C(=O)c3c(O)ccn(C)c3=O)[C@H](O)[C@@H]2O)[C@H](O)[C@H](O[C@@H]2O[C@H](C)[C@@H](O[C@@H]3O[C@@H](C)[C@H](OC)[C@@H](O)[C@H]3OC)[C@@H](OC)[C@H]2O)C1(C)C` [Efrotomycin], in data set [4], the “oral absorption and plasma half-life” value was “rapid oral absorption and prolonged plasma half-life”.

Take `COc1ccc(C[C@H](N)C(=O)N[C@H]2[C@@H](O)[C@H](n3cnc4c(N(C)C)ncnc43)O[C@@H]2CO)cc1` [puromycin]: the “puromycin-shift of the hybridization signal, cytosolic rRNA” value in data set [3] is reported as “caused a shift”. In data set [5], the “puromycin-shift of the hybridization signal, plastid rRNA” value is given as “caused a shift”.

On to `NCCC[C@H](N)CC(=O)N[C@H]1CNC(=O)[C@H]([C@H]2C[C@H](O)NC(N)=N2)NC(=O)/C(=C/NC(N)=O)NC(=O)[C@H](CO)NC(=O)[C@H](CO)NC1=O` [viomycin] (β3hOrn-[Dap]SS[ΔAla(Z-3-ureido)][X1]; lactam 1-C), for which, in data set [1] (data not shown), the “effect on P.falciparum (specificity control)” value is “lack of effect”.

Take `C/C=C\C=C\[C@@H]1O[C@](O)([C@H](CC)C(=O)NC/C=C/C=C(\C)[C@@H](OC)[C@@H](C)[C@@H]2O[C@H](/C=C/C=C/C=C(\C)C(=O)c3c(O)ccn(C)c3=O)[C@H](O)[C@@H]2O)[C@H](O)[C@H](O)C1(C)C` [Aurodox, 1-methylmocimycin]: the “first inhibitory effects on ring stage parasites, time after exposure” value in data set [1] (synchronized cultures) was “as early as five hours”. Also, in data set [1] (synchronized cultures, ring stage parasites), the “inhibitory effects maximal, time of exposure” value worked out at 10 h. Besides, the “loss of specific mt staining evident, time” value in the data set on P.falciparum [6] lay within 2 to 3 h. Besides, in the data set with P.falciparum [7], the “parasite death or stasis” value is given as “parasite death rather than stasis”. Further, in the data set with Corynebacterium spp, the “sensitivity of P.falciparum blood cultures relative to Corynebacterium spp” value is on record as “about 10 times”. Moreover, the “development of the infection in mice” value in the data set with P.chabaudi is “lag in development of the infection compared with untreated controls”.

On to `CC/C=C/C(OC(N)=O)C(Cl)C(O)CC(=O)C(O)C(O)C(C)/C(Cl)=C/C=C/C=C(C)/C=C/C=C/C(=O)O[C@@H]1C[C@@H](C(=O)O)CC[C@@H]1O` (some centres unmarked) [Enacyloxin IIa], for which the “mobility (Mr)” value in data set [2] is recorded as “increased”.

In the case of kirromycin, the “concentration at which maximum inhibition of radiotracer incorporation was achieved” value in data set [1] (setting [8]) is 100 µM. The “development of the infection in mice” value in the data set with P.chabaudi is on record as “less effective in vivo than Aurodox”. In addition, in data set [2], the “mobility (Mr)” value is reported as “increased”. Further, the “effect on RNA, DNA and protein synthesis” value with eukaryotic cells was “blocks RNA synthesis without affecting DNA or protein synthesis”.
